Read-outs that look alike come from different tables or passages of the source.
What was measured:
[1] = system: tert-butylhydroperoxide-induced lipid peroxidation (t-BuOOH-LP) in rat liver microsomes; experiment: Inhibition of tert-butylhydroperoxide-induced lipid peroxidation (t-BuOOH-LP), chemiluminescence; format: biochemical
Procedure: Inhibition of lipid peroxidation was evaluated on the basis of their potency to inhibit tert-butylhydroperoxide-induced lipid peroxidation (t-BuOOH-LP) in rat liver microsomes in vitro (Ahotupa et al. 1997). The test for the t-BuOOH-LP was carried out as follows: The buffer (50 mM sodium carbonate, pH 10.2, with 0.1 mM EDTA) was pipetted in a volume of 0.8 ml in the luminometer cuvette. Twenty microliters of diluted liver microsomes, final concentration 1.5 mg protein/ml, was added, followed by […] of luminol (0.5 mg/ml) and test chemicals. The test compounds were added to incubation mixtures in a small volume diluted in ethanol or dimethylsulphoxide (2% of incubation volume), and the lipid peroxidation potency was compared to that of the vehicle (ethanol or dimethyl sulphoxide). The reaction was initiated by 0.05 ml of 0.9 mM t-BuOOH at 33° C. Chemiluminescence was measured for about 45 min at 1 min cycles, and the area under curve (integral) was calculated. Chemiluminescence measurements were carried out using a Bio-Orbit 1251 Luminometer (Bio-Orbit, Turku, Finland) connected to a personal computer using dedicated software for the assays.

[2] = system: low density lipoprotein (LDL) oxidation; experiment: Inhibition of LDL oxidation (CuCl2-induced, absorbance at 234 nm); format: biochemical; settings: CuCl2, 3 hrs at +37° C.; read-out: Inhibition of LDL oxidation, IC-50
Procedure: Inhibition of LDL oxidation was estimated as described by Ahotupa et al, 1996. Shortly: LDL was isolated by precipitation with buffered heparin. After resuspendation in phosphate buffer, 20 mM CuCl2 was added and the mixture was incubated for 3 hrs at +37° C. After this, LDL lipids were extracted with chloroform-methanol, dried under nitrogen, redissolved in cyclohexane and analyzed spectrophotometrically at 234 nm. The intensity of absorbance is indicative of LDL oxidation. To test the ability of different compounds to prevent LDL oxidation, the compounds were added to the incubation mixture prior addition of CuCl2. Possible interference of test compounds with the assay procedure was excluded by measuring the absorption at 234 nm before and after the incubation period.

[3] = Superoxide anion scavenging (xanthine-xanthine oxidase system, chemiluminescence); format: biochemical; settings: read-out: Superoxide anion scavenging, IC-50
Procedure: Superoxide anion scavenging method was based on the superoxide anion produced in controlled conditions by xanthine-xanthine oxidase system and detection of the generated reactive oxygen species by luminometer (Ahotupa et al., 1997). The ability of test compounds to decrease the chemiluminescence was evaluated. IC-50 concentration (concentration which prevented the chemiluminescence by 50%) was calculated.

[4] = target: T1, aromatase (Homo sapiens, UniProt P11511); experiment: Aromatase inhibiting capacity in JEG-3 cells (3H-17β-estradiol formation from 3H-androstenedione); format: cell-based; settings: 4 h incubation, FIG. 1
T1 construct: 800 μl cell suspension (1 million cells); endogenous in cells; host or cells: JEG-3 human choriocarcinoma cells
T1 sequence (P11511 1-503): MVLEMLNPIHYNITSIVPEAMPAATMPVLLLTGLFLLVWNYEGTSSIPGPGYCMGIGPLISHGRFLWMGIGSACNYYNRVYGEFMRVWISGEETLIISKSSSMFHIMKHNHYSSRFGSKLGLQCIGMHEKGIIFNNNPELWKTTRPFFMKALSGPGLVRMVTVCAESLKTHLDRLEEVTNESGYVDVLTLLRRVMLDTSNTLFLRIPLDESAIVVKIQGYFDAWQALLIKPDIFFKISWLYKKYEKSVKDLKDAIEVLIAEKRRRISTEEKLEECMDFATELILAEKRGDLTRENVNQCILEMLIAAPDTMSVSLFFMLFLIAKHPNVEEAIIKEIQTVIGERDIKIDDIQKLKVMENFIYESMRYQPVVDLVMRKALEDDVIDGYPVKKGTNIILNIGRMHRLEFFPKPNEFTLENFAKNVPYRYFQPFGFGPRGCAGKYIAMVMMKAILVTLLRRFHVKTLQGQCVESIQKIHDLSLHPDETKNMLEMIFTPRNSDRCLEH
Procedure: The effects of HMR and structurally related lignans (enterolactone, enterodiol and 7-hydroxyenterolactone) were studied on formation of ^3H-17β-estradiol from ^3H-andostenedione in JEG-3 cells, human choriocarcinoma cell line. […] Cells were maintained in DMEM containing 10% fetal calf serum (FCS). The incubation mixture contained 50 μl ^3H-androst-4-ene, 3,17-dione (0.5 nM), 50 μl unlabelled androstenedione (0.5 nM), 100 μl test compounds (10 mM) and 800 μl cell suspension (1 million cells). After the incubation for 4 h, unlabelled carriers (androstenedione, testosterone, 17β-estradiol and estrone) were added. The steroids were extracted twice with 3.0 ml dichloromethane. […] The column system consisted of a guard column followed by a C18 150×3.9 mm ID analytical column (Technopak 10 C18 HPLC Technology; Wellington House, Cheshire, UK). The mobile phase was acetonitrile/water (35/65) and the flow rate was 1.2 ml/min. For in-line detection of the radioactive metabolites, the eluent of the HPCL column was continuously mixed with liquid scintillant and then monitored with in-line radioactivity detector.

[5] = system: uterine growth of immature rats; experiment: Immature rat uterotropic test; format: in vivo; settings: methodological control for non-estrogen-stimulated uterus
Procedure: The estrogenicity HMR was evaluated by the uterotropic assay in immature rats which was performed as described earlier (Jordan et al. 1977), with the exception of treatment time which was 7 days instead of 3 days in the reference study. The treatment time was longer because of the expected weak estrogenicity of the test compound. The treatment of immature rats with an aromatase inhibitor (MPV-2213 ad), which prevents biosynthesis of estradiol, was used as a methodological control for non-estrogen-stimulated uterus.

[6] = system: antiestrogen-sensitive DMBA-induced breast cancer; settings: supplementation of a high-fat diet, rat; Serraino and Thompson, Thompson et al.; cited from earlier work
[7] = system: chemically induced aberrant crypts in rat colon; settings: diet supplementation; Serraino and Thompson 1992, Jenab and Thompson 1996; cited from earlier work
[8] = system: uterine weight; settings: feeding during pregnancy and lactation to rats; effect not evident at later stages; Tou et al. 1998; cited from earlier work
[9] = system: MCF-7 cells; settings: Mousavi and Adlercreutz 1992; cited from earlier work
[10] = system: mouse uterine weight; settings: Setchell et al. 1981; cited from earlier work
[11] = lipid peroxidation inhibition test, rat liver microsomes, Table 2, read-out: Antioxidative capacity (t-BuOOH-LP) IC50
[12] = Table 3 comparison with known antioxidants, read-out: Inhibition of lipid peroxidation, IC-50

O=c1c(O)c(-c2ccc(O)c(O)c2)oc2cc(O)cc(O)c12 [quercetin, 3,3′,4′,5,7-pentahydroxy-flavone]
IC50 [1, 11]: 0.4 µM

Cc1c(C)c2c(c(C)c1O)CCC(C)(C(=O)O)O2 (stereo not drawn) [TROLOX]
IC50 [1, 12]: 0.02 µM | IC50 [2]: 2.7 µM | IC50 [3]: 0.025 mM

OCC(Cc1cccc(O)c1)C(CO)Cc1cccc(O)c1 (stereo not drawn) [enterodiol, 2,3-bis-(3′-hydroxybenzyl)-butane-1,4-diol]
IC50 [1, 11]: 12.7 µM | Inhibition of aromatization (3H-17β-estradiol formation from 3H-androstenedione) [4]: noninhibitory

Cc1cc(C(C)(C)C)c(O)c(C(C)(C)C)c1 [BHT, Butylated hydroxytoluene]
IC50 [1, 12]: 15.3 µM | IC50 ([3]; value in mM): > 1 mM

N#Cc1ccc(C(C(O)Cc2ccc(F)cc2)n2cncn2)cc1 (stereo not drawn) [MPV-2213 ad, reference compound]
Effect on increase of uterine weight [5]: prevented the increase of uterine weight

COc1ccc(-c2oc3cc(O)cc(O)c3c(=O)c2O)cc1 [kaempferide, 3,5,7-trihydroxy-4′-methoxy-flavone]
IC50 [1, 11]: 0.5 µM

O=c1c(O)c(-c2ccc(O)cc2)oc2cc(O)cc(O)c12 [kaempferol, 3,4′,5,7-tetrahydroxy-flavone]
IC50 [1, 11]: 0.9 µM

secoisolariciresinol-diglycoside [SDG]
Development of DMBA-induced breast cancer [6]: prevented the development | Formation of chemically induced aberrant crypts in rat colon [7]: inhibited the formation | Uterine weight [8]: increased the uterine weight at weaning

COc1ccc(O)c(C(C)(C)C)c1 [BHA, Butylated hydroxyanisol]
IC50 [1, 12]: 1.1 µM | IC50 [3]: 0.015 mM

O=C1OCC(Cc2cccc(O)c2)C1Cc1cccc(O)c1 (stereo not drawn) [enterolactone, 2,3-bis-(3′-hydroxybenzyl)-butyrolactone]
IC50 [1, 11]: 15.9 µM | Inhibition of aromatization (3H-17β-estradiol formation from 3H-androstenedione) [4]: dose-dependent inhibition | Estrogenic potency in MCF-7 cells [9]: weak estrogenic potency | Estrogenic response in mouse uterine weight [10]: no estrogenic response

O=C1OC[C@H](Cc2cccc(O)c2)[C@H]1[C@@H](O)c1cccc(O)c1 [7-hydroxyenterolactone]
Inhibition of aromatization (3H-17β-estradiol formation from 3H-androstenedione) [4]: no inhibitory effects
